In PubChem BioAssay (NCI) one finds GI50 and TGI data, which are given here for eight compounds.

The structures appear in SMILES notation.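 Step 1: Grow cells in 96-well plates. Step 2: Expose to compound for 48 hours at 5 concentrations. Step 3: Interpolate endpoints linearly; if unreached, use highest concentration. GI50 = concentration required for 50% inhibition of growth. TGI marks complete inhibition of growth.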 Some results are limits rather than exact numbers.

Among the test systems are HCC-2998 colon; PC-3 prostate; HCT-116 colon; SNB-75 CNS; A549 NSCLC; SK-MEL-2 melanoma; CAKI-1 renal; HS 578T breast; OVCAR-3 ovarian; SK-OV-3 ovarian.
Holding throughout (test): inhibition of tumour cell growth, NCI panel, 48 h

As for `OCC(O)C(O)C(O)/C=N/Nc1nc2ccccc2nc1-c1ccccc1` (stereo not drawn), the GI50 was 91.2 µM in the assay with HCC-2998 colon; 82.4 µM in the assay with PC-3 prostate; greater than 100 µM with HCT-116 colon; greater than 100 µM in the assay on SNB-75 CNS; greater than 100 µM with A549 NSCLC; greater than 100 µM with SK-MEL-2 melanoma. The GI50 in the assay with CAKI-1 renal is 87.9 µM; in the assay with HS 578T breast it was 83.6 µM; in the assay on OVCAR-3 ovarian, 46 µM; in the assay on SK-OV-3 ovarian, greater than 100 µM. In addition, the TGI in the assay with HCC-2998 colon, in the assay with PC-3 prostate, with HCT-116 colon, in the assay with SNB-75 CNS, with A549 NSCLC and in the assay with SK-MEL-2 melanoma was greater than 100 µM in each case. Besides, the TGI in the assay with CAKI-1 renal, in the assay with HS 578T breast, in the assay on OVCAR-3 ovarian and in the assay on SK-OV-3 ovarian was greater than 100 µM in each case.
With `COc1ccc(OC)c2c(=S)c3ccccc3[nH]c12`, the TGI with HCC-2998 colon, with PC-3 prostate, in the assay with HCT-116 colon, in the assay on SNB-75 CNS, in the assay with A549 NSCLC and in the assay with SK-MEL-2 melanoma was greater than 100 µM in each case. The TGI with CAKI-1 renal, in the assay with HS 578T breast, in the assay with OVCAR-3 ovarian and in the assay on SK-OV-3 ovarian was greater than 100 µM in each case.
For `OCc1ccc(N(CCN2CCCC2)Cc2ccc(F)cc2)cc1Cl`, the GI50 is 10.7 µM in the assay on HCC-2998 colon; 15.6 µM in the assay with PC-3 prostate; 13.4 µM with HCT-116 colon; 12.5 µM with SNB-75 CNS; 6.5 µM in the assay on A549 NSCLC; 17 µM with SK-MEL-2 melanoma. Besides, the GI50 with CAKI-1 renal was 4.15 µM; in the assay on HS 578T breast it was 20.9 µM; in the assay on OVCAR-3 ovarian, 19.5 µM; with SK-OV-3 ovarian, 7.88 µM. The TGI turned out to be 23.8 µM in the assay with HCC-2998 colon; 37 µM in the assay on PC-3 prostate; 37.3 µM in the assay on HCT-116 colon; 35.3 µM in the assay with SNB-75 CNS; 27.9 µM with A549 NSCLC; 33 µM in the assay on SK-MEL-2 melanoma. In addition, the TGI with CAKI-1 renal was 19.4 µM; with HS 578T breast, 80.1 µM; with OVCAR-3 ovarian, 36.6 µM; in the assay on SK-OV-3 ovarian, 31 µM.
As for `NC1=Nc2cc(OCCCN3Cc4ccccc4C3)c(OCC3CC3)cc2C12CCCC2`, the GI50 in the assay on HCC-2998 colon is 1.62 µM; in the assay with PC-3 prostate, 2.66 µM; in the assay on HCT-116 colon it was 1.61 µM; in the assay with SNB-75 CNS, 1.07 µM; in the assay with A549 NSCLC, 3.99 µM; in the assay with SK-MEL-2 melanoma it was 2.35 µM. Further, the GI50 with CAKI-1 renal is 2.31 µM; in the assay on HS 578T breast, 2.83 µM; in the assay with OVCAR-3 ovarian, 2.69 µM; with SK-OV-3 ovarian it was 4.48 µM. Also, the TGI came out at 3.08 µM in the assay on HCC-2998 colon; 12.7 µM with PC-3 prostate; 3.49 µM with HCT-116 colon; 7.97 µM in the assay with SNB-75 CNS; 13.5 µM in the assay with A549 NSCLC; 4.7 µM in the assay with SK-MEL-2 melanoma. For the same compound, the TGI amounted to 11.3 µM in the assay on CAKI-1 renal, 17.7 µM in the assay with HS 578T breast, 8.68 µM in the assay with OVCAR-3 ovarian and 17.4 µM in the assay on SK-OV-3 ovarian.
Take `COc1cc(/C=C2\C(=O)Nc3cccc(Cl)c32)cc(OC)c1OC`: the GI50 with HCC-2998 colon is greater than 100 µM; in the assay on PC-3 prostate, greater than 100 µM; with HCT-116 colon, greater than 100 µM; in the assay on SNB-75 CNS it was 21.9 µM; with A549 NSCLC, greater than 100 µM; in the assay with SK-MEL-2 melanoma, greater than 100 µM. For the same compound, the GI50 in the assay with CAKI-1 renal, in the assay with HS 578T breast, with OVCAR-3 ovarian and in the assay on SK-OV-3 ovarian was greater than 100 µM in each case. For the same compound, the TGI with HCC-2998 colon was greater than 100 µM; in the assay on PC-3 prostate, greater than 100 µM; with HCT-116 colon, greater than 100 µM; in the assay on SNB-75 CNS it was 84 µM; in the assay on A549 NSCLC, greater than 100 µM; with SK-MEL-2 melanoma, greater than 100 µM. Besides, the TGI in the assay on CAKI-1 renal, in the assay with HS 578T breast, with OVCAR-3 ovarian and with SK-OV-3 ovarian was greater than 100 µM throughout.
As for `COc1cc2c(cc1OCCCCOc1ccc(-c3nc4ccccc4s3)cc1)N=C[C@@H]1CCCN1C2=O`, the GI50 in the assay with HCC-2998 colon was 0.82 µM; in the assay with PC-3 prostate, 0.63 µM; in the assay on HCT-116 colon, 0.511 µM; in the assay with SNB-75 CNS, 1.26 µM; with A549 NSCLC it was 2.8 µM; in the assay on SK-MEL-2 melanoma it was 0.393 µM. The GI50 in the assay on CAKI-1 renal is 0.769 µM; in the assay on HS 578T breast it was 0.891 µM; in the assay on OVCAR-3 ovarian it was 0.477 µM; in the assay with SK-OV-3 ovarian, 1.92 µM. Further, the TGI in the assay with HCC-2998 colon is 2.28 µM; with PC-3 prostate it was 2.11 µM; in the assay with HCT-116 colon it was 1.62 µM; with SNB-75 CNS it was 2.63 µM; in the assay with A549 NSCLC, 8.15 µM; with SK-MEL-2 melanoma it was 1.83 µM. Besides, the TGI in the assay on CAKI-1 renal is 10.8 µM; in the assay with HS 578T breast it was 4.43 µM; in the assay with OVCAR-3 ovarian, 3.47 µM; with SK-OV-3 ovarian it was 5.08 µM.
In the case of `O=C(Nc1ccccc1)Nc1cccc(Oc2nnc(Cl)c3ccccc23)c1`, the GI50 in the assay on HCC-2998 colon was 4.2 µM; in the assay on PC-3 prostate it was 3.26 µM; with HCT-116 colon it was 3.06 µM; in the assay with SNB-75 CNS, 1.08 µM; with A549 NSCLC, 3.47 µM; in the assay on SK-MEL-2 melanoma, 3.9 µM. Besides, the GI50 in the assay with CAKI-1 renal is 3.34 µM; in the assay with HS 578T breast it was 2.12 µM; with OVCAR-3 ovarian it was 2.64 µM; with SK-OV-3 ovarian, 1.46 µM. In addition, the TGI with HCC-2998 colon worked out at 12.2 µM; in the assay on PC-3 prostate it was 10.6 µM; in the assay on HCT-116 colon, 9.77 µM; in the assay with SNB-75 CNS it was 5.9 µM; in the assay with A549 NSCLC, 18.4 µM; in the assay with SK-MEL-2 melanoma, 13.2 µM. The TGI is 14.3 µM in the assay with CAKI-1 renal, 10.4 µM in the assay on HS 578T breast, 5.97 µM in the assay on OVCAR-3 ovarian and 5.51 µM in the assay with SK-OV-3 ovarian.
On to `N#Cc1ccc2c(c1)C(=O)c1c-2n(CCCN)c(=O)c2cc([N+](=O)[O-])ccc12`, for which the GI50 in the assay with HCC-2998 colon is 0.101 µM; in the assay on PC-3 prostate it was 0.317 µM; in the assay on HCT-116 colon it was 0.199 µM; in the assay with SNB-75 CNS, 0.288 µM; with A549 NSCLC it was 0.223 µM; with SK-MEL-2 melanoma, 0.0534 µM. Also, the GI50 was 0.0285 µM in the assay on CAKI-1 renal, 1.41 µM in the assay with HS 578T breast and 0.314 µM in the assay with SK-OV-3 ovarian. The TGI with HCC-2998 colon came out at 0.447 µM; with PC-3 prostate it was 1.95 µM; with HCT-116 colon, 1.59 µM; in the assay on SNB-75 CNS, 1.24 µM; in the assay with A549 NSCLC, 2.18 µM; with SK-MEL-2 melanoma, 1.29 µM. Besides, the TGI with CAKI-1 renal worked out at 1.54 µM; with HS 578T breast, 3.41 µM; in the assay with SK-OV-3 ovarian it was 1.92 µM.
